Test results published in US7041821B2, “Synthetic molecules for labeling histidine-rich proteins” (The Regents of the University of California, priority 2003, dated 2006).
Read-outs that look alike come from different tables or passages of the source.

Tests used:
his6-CFP = details: +Zn2+ + his6-CFP: 1 μM dye, pH 7.2, 100 μM ZnCl2 and 1 μM his6-CFP
Description: Excitation (ex), emission (em) maxima (in nm) and fluorescence quantum yields (φ) of 1 μM dye in 100 mM KCl 10 mM MOPS pH 7.2 with 50 μM EDTA (—Zn^2+), 100 μM ZnCl2 (+Zn^2+) or 100 μM ZnCl2 and 1 μM his6-CFP (+Zn^2++his6-CFP).

[1] = tested on: HEK293 cells expressing a His6-tagged test-protein
From the text: A gene encoding the peptide […] (His6-) was created by the polymerase chain reaction (PCR), using pRSETB template (Invitrogen). BglII and SacII restriction sites were incorporated at the 5′ and 3′ ends of the gene, by using the forward primer […] and reverse primer […]. For expression on the surface of mammalian cells, the gene was inserted into the pDisplay vector (Invitrogen) using the BglII and SacII restriction sites. This vector supplies the necessary sequences for entry into the secretory pathway and anchoring to the outer face of the plasma membrane.
HEK 293 cells were plated onto sterilized glass cover slips on 2 cm dishes or 10 cm plates and grown to 50–100% confluency in DMEM supplemented with 10% FBS at 37° C. in 6% CO2. Cells were transfected with FUGENE-6 transfection reagent (Roche Molecular Biochemicals). After 24 to 48 h incubation at 37° C. in culture medium, the cells were washed once with Hanks' balanced salt solution buffer (HBSS). Then 2 mL of the staining solution (HEPES buffer with 1 μM free Zn^2+ (pH 7.4), ˜1–1.5 μM of compound (I) (DMSO stock)) was added to the cells. After 1 min, the cells were washed twice with HBSS and imaged. Imaging experiments were performed with excitation at 540 nm (25 nm bandwidth), emission at 595 nm (50 nm bandwidth), and dichroic mirror at 560 nm for the Zn-compound (I); and excitation at 420 nm (20 nm bandwidth), emission at 475 nm (40 nm bandwidth) and dichroic mirror at 450 nm for CFP.
(§1) A solution of Compound (I) in buffer containing 1 μM Zn^2+ was added extracellularly to intact HEK293 cells expressing a His6-tagged test-protein, targeted to the surface of the cell membrane.

[2] = remark: listed apart in the source
Description: Formation of the Zn-complex can be monitored by absorbance or fluorescence emission and excitation shifts. Aliquots of a dye stock solution in DMSO were added to 500 μL of buffers containing 10 nM, 100 nM, 1 μM or 10 μM free zinc (controlled by Ca^2+/Zn^2+ EGTA and 10 mM HEPES; see Walkup, G. K., Burdette, S. C., Lippard, S. J., and Tsien, R. Y., J. Am. Chem. Soc. 2000, 122, 5644–5645) or zinc free (10 mM HEPES, 1 mM EDTA buffer) solutions to yield approximately 1–1.5 μM dye solution (ε˜65,500 M^−1 cm^−1).

poly-histidine peptide = tested on: poly-histidine peptide
Description: as §1

[3] = +Zn2+: 1 μM dye, pH 7.2, 100 μM ZnCl2
[4] = −Zn2+: 1 μM dye, 100 mM KCl 10 mM MOPS pH 7.2, 50 μM EDTA

| Compound | Emission maximum (em) [3] | Excitation maximum (ex) [3] | Fluorescence quantum yield (φ) [3] | Emission maximum (em) [4] | Excitation maximum (ex) [4] | Fluorescence quantum yield (φ) [4] | Emission maximum (em) (his6-CFP) | Excitation maximum (ex) (his6-CFP) | Fluorescence quantum yield (φ) (his6-CFP) | Speed of staining ([1]; intact HEK293 cells, 1 μM Zn2+) | Staining of non-transfected cells ([1]; neighboring non-transfected HEK293 cells, same staining) | Reversibility of staining ([1]; washing with EDTA solutions (FIG. 7)) | Staining of transfected cells ([1]; ~1–1.5 μM compound, 1 μM free Zn2+, added extracellularly, 1 min, washed) | Extinction coefficient ε ([2]; dye solution in HEPES buffers) | Fluorescence quantum yield ([2]; virtually unchanged between 0 and 1 μM free Zn2+ (FIG. 2)) | Fluorescence anisotropy binding (poly-histidine peptide) |
| --- | --- | --- | --- | --- | --- | --- | --- | --- | --- | --- | --- | --- | --- | --- | --- | --- |
| 2′,7′-bis(2-dimethylaminoethanesulfonamido)-4′,5′-difluorofluorescein [Compound II] | 560 nm | 523 nm | 0.37 | 544 nm | 517 nm | 0.47 | 560 nm | 531 nm | 0.19 | – | – | – | – | – | – | – |
| 2′,7′-bis(2-pyridylsulfonamido)-4′,5′-difluorofluorescein [Compound IV] | 566 nm | 533 nm | 0.35 | 547 nm | 525 nm | 0.60 | 570 nm | 545 nm | 0.08 | – | – | – | – | – | – | – |
| Cc1c(O)c(NS(=O)(=O)c2ccccn2)cc2c1Oc1c(cc(NS(=O)(=O)c3ccccn3)c(O)c1C)C21OC(=O)c2ccccc21 [Compound I, 2′,7′-Bis(pyridyl-2-sulfonamido)-4′,5′-dimethylfluorescein] | 557 nm | 523 nm | 0.34 | 545 nm | 518 nm | 0.40 | 560 nm | 536 nm | 0.09 | stains cells virtually instantaneously | no staining | staining is reversible by washing with EDTA solutions | transfected cells clearly showed membrane specific fluorescent staining | ~65,500 M^−1 cm^−1 | ~0.4 | clearly indicate binding to a poly-histidine peptide |
